The record followed here is patent US12336981B2, “Compounds and compositions for the inhibition of NAMPT” (Valo Health, Inc., priority 2010, dated 2025).

The IC50 is the concentration that gives 50% inhibition.

Where two headings read alike, the source gives them in different places.

Experiment [1] concerns the target T1, NAMPT (Homo sapiens, UniProt P43490).
T1 construct: His tag; host or cells: E. coli
In words: Biochemical inhibition assay: NAMPT enzymatic reaction, NMN quantified by mass spectrometry. The following applies: read-out: Biochem IC50. In a few lines: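 Inhibition of E. coli-expressed His-tagged human NAMPT, measured as NMN formation by mass spectrometry after a 30 min room-temperature reaction containing 1 μM NAM, 100 μM PRPP and 2.5 mM ATP.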

Experiment [2] has as its system A2780 cells. Nature of the experiment: In-vitro cell proliferation assay (SRB), A2780 cells. Format: cell-based. The following applies: Homo sapiens, A2780, 72 h, A2780 cells, 72 hours, read-out: A2780 IC50. In a few lines:
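Proliferation is assessed by sulforhodamine B staining following a 72-hour incubation with compound dilutions containing 0.1% DMSO.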

T1 sequence (P43490 whole entry): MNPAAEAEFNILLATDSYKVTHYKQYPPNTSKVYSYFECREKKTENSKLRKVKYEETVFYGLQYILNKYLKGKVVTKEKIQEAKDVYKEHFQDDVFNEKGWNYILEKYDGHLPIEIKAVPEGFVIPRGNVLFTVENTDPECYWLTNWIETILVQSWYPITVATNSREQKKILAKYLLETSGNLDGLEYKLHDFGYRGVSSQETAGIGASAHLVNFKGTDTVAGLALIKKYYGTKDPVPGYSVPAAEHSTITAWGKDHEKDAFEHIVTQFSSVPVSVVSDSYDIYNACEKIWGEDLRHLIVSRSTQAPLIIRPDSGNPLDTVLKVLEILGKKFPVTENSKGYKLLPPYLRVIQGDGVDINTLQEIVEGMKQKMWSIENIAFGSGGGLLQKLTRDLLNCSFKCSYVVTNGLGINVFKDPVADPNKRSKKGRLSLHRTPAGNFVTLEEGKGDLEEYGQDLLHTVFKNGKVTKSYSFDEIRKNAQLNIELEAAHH

With `COc1ccc(S(=O)(=O)c2ccc(CNC(=O)c3ccc4nccn4c3)cc2)c(F)c1` [N-({4-[(2-fluoro-4-methoxybenzene)sulfonyl]phenyl}methyl)imidazo[1,2-a]pyridine-6-carboxamide], the IC50 in experiment [1] (NAMPT enzymatic reaction) worked out at 41.3 nM; in experiment [2] (SRB), 22.9 nM.

On to `COc1cc(Cl)ccc1S(=O)(=O)c1ccc(CNC(=O)c2cnc3nccn3c2)cc1`, for which the IC50 was found to be 3.3 nM in experiment [1] (NAMPT enzymatic reaction) and 24.7 nM in experiment [2] (SRB).

For `CCOc1ccccc1S(=O)(=O)c1ccc(CNC(=O)c2cc3ccncc3s2)cc1` [N-({4-[(2-ethoxybenzene)sulfonyl]phenyl}methyl)thieno[2,3-c]pyridine-2-carboxamide], the IC50 was determined as 2 nM in experiment [1] (NAMPT enzymatic reaction) and 0.8 nM in experiment [2] (SRB assay).

On to `O=C(NCc1ccc(S(=O)(=O)c2ccc(Cl)cc2)cc1)c1cc2cnccc2[nH]1` [N-({4-[(4-chlorobenzene)sulfonyl]phenyl}methyl)-1H-pyrrolo[3,2-c]pyridine-2-carboxamide], for which the IC50 in experiment [1] (NAMPT enzymatic reaction) was 9 nM; in experiment [2] (SRB assay), 25 nM.

With `O=C(NCc1ccc(S(=O)(=O)c2cncc(N3CCCC3)c2)cc1)c1cc2cnccc2[nH]1` [N-({4-[5-(pyrrolidin-1-yl)pyridine-3-sulfonyl]phenyl}methyl)-1H-pyrrolo[3,2-c]pyridine-2-carboxamide], the figures for the IC50 in experiment [1] (NAMPT enzymatic assay) and in experiment [2] (SRB) were 13.9 nM and 2 nM, respectively.

With `O=C(NCc1ccc(S(=O)(=O)c2cccc3c2oc2ccccc23)cc1)c1cnc2nccn2c1`, the IC50 was found to be 1.7 nM in experiment [1] (NAMPT enzymatic assay) and 2.9 nM in experiment [2] (SRB).

`O=C(NCc1ccc(S(=O)(=O)c2cccc(N3CCCC3)c2)cc1)c1cc2cc(O)ccc2[nH]1`: the IC50 was 144 nM in experiment [1] (NAMPT enzymatic reaction) and 100 to 1000 nM in experiment [2] (SRB).

On to `O=C(NCc1ccc(S(=O)(=O)c2ccc(OCC(F)(F)F)c(F)c2)cc1)c1cc2ccncc2o1`, for which the IC50 in experiment [1] (NAMPT enzymatic assay) turned out to be 6.9 nM; in experiment [2] (SRB) it was 23.8 nM.

In the case of `CC(C)Oc1cc(F)ccc1S(=O)(=O)c1ccc(CNC(=O)c2ccc3nccn3c2)cc1`, the IC50 is 22.2 nM in experiment [1] (NAMPT enzymatic assay) and 2.1 nM in experiment [2] (SRB).

Consider `COc1cc(S(=O)(=O)c2ccc(CNC(=O)c3cnc4[nH]ncc4c3)cc2)ccc1F` [N-({4-[(4-fluoro-3-methoxybenzene)sulfonyl]phenyl}methyl)-1H-pyrazolo[3,4-b]pyridine-5-carboxamide], for which the IC50 was 23.9 nM in experiment [1] (NAMPT enzymatic reaction) and 11.5 nM in experiment [2] (SRB).

Regarding `CC(C)CNC(=O)c1cccc(S(=O)(=O)c2ccc(CNC(=O)c3cc4ccncc4o3)cc2)c1`, the values for the IC50 in experiment [1] (NAMPT enzymatic assay) and in experiment [2] (SRB) were 16.9 nM and 26.3 nM, respectively.

`COc1ccc(S(=O)(=O)c2ccc(CNC(=O)c3cc4ccncc4s3)cc2)c(Cl)c1`: the IC50 amounted to 2.7 nM in experiment [1] (NAMPT enzymatic reaction) and 5.5 nM in experiment [2] (SRB).

For `Cc1ccc(S(=O)(=O)c2ccc(CNC(=O)c3cnc4nccn4c3)cc2)c(F)c1`, the 50% inhibitory concentration (IC50) turned out to be 6.3 nM in experiment [1] (NAMPT enzymatic reaction) and 61.4 nM in experiment [2] (SRB).

Regarding `O=C(NCc1ccc(S(=O)(=O)c2ccc3nc(C(F)(F)F)cn3c2)cc1)c1ccc2nccn2c1` [N-({4-[2-(trifluoromethyl)imidazo[1,2-a]pyridine-6-sulfonyl]phenyl}methyl)imidazo[1,2-a]pyridine-6-carboxamide], the IC50 in experiment [1] (NAMPT enzymatic assay) is 36.2 nM; in experiment [2] (SRB), 7 nM.

In the case of `O=C(NCc1ccc(S(=O)(=O)c2cc(F)ccc2F)cc1)c1cnc2[nH]ncc2c1`, the IC50 in experiment [1] (NAMPT enzymatic reaction) was 100 to 1000 nM; in experiment [2] (SRB), 392 nM.

For `O=C(NCc1ccc(S(=O)(=O)c2ccccn2)cc1)c1cc2ccncc2o1` [N-{[4-(pyridine-2-sulfonyl)phenyl]methyl}furo[2,3-c]pyridine-2-carboxamide], the values for the IC50 in experiment [1] (NAMPT enzymatic assay) and in experiment [2] (SRB) were 55.1 nM and 87 nM, respectively.

In the case of `O=C(NCc1ccc(S(=O)(=O)c2cccc(O)c2)cc1)c1ccc2nccn2c1`, the IC50 was determined as 5 nM in experiment [1] (NAMPT enzymatic reaction) and 7 nM in experiment [2] (SRB).

As to `COc1cccc(S(=O)(=O)c2ccc(CNC(=O)c3ccc4nccn4c3)cc2)c1OC` [N-({4-[(2,3-dimethoxybenzene)sulfonyl]phenyl}methyl)imidazo[1,2-a]pyridine-6-carboxamide], the IC50 was 68.7 nM in experiment [1] (NAMPT enzymatic reaction) and 24.9 nM in experiment [2] (SRB).

On to `O=C(NCc1ccc(S(=O)(=O)c2cc(F)cc(OCC(F)(F)F)c2)cc1)c1cnc2[nH]ncc2c1` [N-[(4-{[3-fluoro-5-(2,2,2-trifluoroethoxy)benzene]sulfonyl}phenyl)methyl]-1H-pyrazolo[3,4-b]pyridine-5-carboxamide], for which the IC50 in experiment [1] (NAMPT enzymatic assay) was found to be 8 nM; in experiment [2] (SRB) it was 4.82 nM.

`COc1ccc(S(=O)(=O)c2ccc(CNC(=O)c3cc4cnccc4[nH]3)cc2)cc1Cl`: the results for the IC50 in experiment [1] (NAMPT enzymatic reaction) and in experiment [2] (SRB) were 10.7 nM and 2.1 nM, respectively.

As to `O=C(NCc1ccc(S(=O)(=O)c2ccc(-n3cccn3)c(F)c2)cc1)c1cc2ccncc2o1`, the IC50 in experiment [1] (NAMPT enzymatic assay) is 17.3 nM; in experiment [2] (SRB), 5 nM.

`Cn1cc2ccc(S(=O)(=O)c3ccc(CNC(=O)c4ccc5nccn5c4)cc3)cc2n1` [N-{[4-(2-methyl-2H-indazole-6-sulfonyl)phenyl]methyl}imidazo[1,2-a]pyridine-6-carboxamide]: the IC50 in experiment [1] (NAMPT enzymatic assay) turned out to be 1.9 nM; in experiment [2] (SRB), 1.7 nM.

In the case of `CCOc1ccc(S(=O)(=O)c2ccc(CNC(=O)c3cnc4nccn4c3)cc2)cc1F`, the half-inhibitory concentration (IC50) came out at 0.9 nM in experiment [1] (NAMPT enzymatic reaction) and 3.1 nM in experiment [2] (SRB).

Turning to `COc1cc(C(F)(F)F)ccc1S(=O)(=O)c1ccc(CNC(=O)c2cc3cnccc3[nH]2)cc1` [N-[(4-{[2-methoxy-4-(trifluoromethyl)benzene]sulfonyl}phenyl)methyl]-1H-pyrrolo[3,2-c]pyridine-2-carboxamide], the 50% inhibitory concentration (IC50) in experiment [1] (NAMPT enzymatic reaction) was found to be 22 nM; in experiment [2] (SRB assay), 5 nM.

As for `CC(=O)c1cccc(S(=O)(=O)c2ccc(CNC(=O)c3cnc4[nH]ncc4c3)cc2)c1`, the 50% inhibitory concentration (IC50) in experiment [1] (NAMPT enzymatic reaction) came to 10 nM; in experiment [2] (SRB), 12.9 nM.

Regarding `O=C(NCc1ccc(S(=O)(=O)c2cccc(N3CCCCC3)c2)cc1)c1ccc2ncsc2c1`, the IC50 in experiment [1] (NAMPT enzymatic assay) was 21 nM; in experiment [2] (SRB) it was 100 to 1000 nM.

As for `Cc1cc(F)cc(S(=O)(=O)c2ccc(CNC(=O)c3cc4ccncc4s3)cc2)c1`, the results for the IC50 in experiment [1] (NAMPT enzymatic reaction) and in experiment [2] (SRB) were 1 nM and 0.6 nM, respectively.

For the compound `O=C(NCc1ccc(S(=O)(=O)c2cnc3ccc(Cl)cn23)cc1)c1cc2cnccc2[nH]1` [N-[(4-{6-chloroimidazo[1,2-a]pyridine-3-sulfonyl}phenyl)methyl]-1H-pyrrolo[3,2-c]pyridine-2-carboxamide], the IC50 in experiment [1] (NAMPT enzymatic assay) stood at 13.2 nM; in experiment [2] (SRB), 1.4 nM.

Regarding `CC(C)COc1cc(F)cc(S(=O)(=O)c2ccc(CNC(=O)c3ccc4nccn4c3)cc2)c1`, the results for the IC50 in experiment [1] (NAMPT enzymatic assay) and in experiment [2] (SRB) were 11.3 nM and 3 nM, respectively.

Turning to `O=C(NCc1ccc(S(=O)(=O)c2ccccc2OC(F)(F)F)cc1)c1cc2ccncc2s1` [N-[(4-{[2-(trifluoromethoxy)benzene]sulfonyl}phenyl)methyl]thieno[2,3-c]pyridine-2-carboxamide], the IC50 in experiment [1] (NAMPT enzymatic reaction) came out at 4 nM; in experiment [2] (SRB assay), 2.8 nM.

Take `COc1cncc(S(=O)(=O)c2ccc(CNC(=O)c3cnc4nccn4c3)cc2)c1` [N-{[4-(5-methoxypyridine-3-sulfonyl)phenyl]methyl}imidazo[1,2-a]pyrimidine-6-carboxamide]: the results for the IC50 in experiment [1] (NAMPT enzymatic assay) and in experiment [2] (SRB) were 1.6 nM and 25.8 nM, respectively.

For `O=C(NCc1ccc(S(=O)(=O)c2cnc3ccccc3c2)cc1)c1cnc2[nH]ncc2c1` [N-{[4-(quinoline-3-sulfonyl)phenyl]methyl}-1H-pyrazolo[3,4-b]pyridine-5-carboxamide], the values for the IC50 in experiment [1] (NAMPT enzymatic assay) and in experiment [2] (SRB) were 5.2 nM and 4.4 nM, respectively.

Regarding `O=C(NCc1ccc(S(=O)(=O)c2ccccc2CN2CCOCC2)cc1)c1cnc2nccn2c1`, the results for the IC50 in experiment [1] (NAMPT enzymatic assay) and in experiment [2] (SRB) were 14.5 nM and 100 to 1000 nM, respectively.

With `COc1ccc(F)cc1NS(=O)(=O)c1ccc(CN/C(=N\C#N)Nc2ccncc2)cc1` [(E)-2-cyano-3-({4-[(5-fluoro-2-methoxyphenyl)sulfamoyl]phenyl}methyl)-1-(pyridin-4-yl)guanidine], the IC50 in experiment [1] (NAMPT enzymatic reaction) is 1.1 nM; in experiment [2] (SRB), 3 nM.

`CCCOc1ccc(Cl)cc1S(=O)(=O)c1ccc(CNC(=O)c2cc3cnccc3[nH]2)cc1`: the concentration for half-maximal inhibition (IC50) amounted to 7.5 nM in experiment [1] (NAMPT enzymatic reaction) and 1.2 nM in experiment [2] (SRB).

Take `COc1cc(C)cc(S(=O)(=O)c2ccc(CNC(=O)c3cc4ccncc4o3)cc2)c1`: the IC50 in experiment [1] (NAMPT enzymatic reaction) was found to be 2.2 nM; in experiment [2] (SRB), 1.6 nM.

For `COc1cc(C)cc(S(=O)(=O)c2ccc(CNC(=O)c3cc4ccncc4s3)cc2)c1`, the half-maximal inhibitory concentration (IC50) was 2.4 nM in experiment [1] (NAMPT enzymatic reaction) and 0.8 nM in experiment [2] (SRB).

As to `O=C(NCc1ccc(S(=O)(=O)c2ccc(N3CCOCC3)nc2)cc1)c1cc2ccncc2o1` [N-({4-[6-(morpholin-4-yl)pyridine-3-sulfonyl]phenyl}methyl)furo[2,3-c]pyridine-2-carboxamide], the IC50 came out at 2 nM in experiment [1] (NAMPT enzymatic assay) and 0.9 nM in experiment [2] (SRB).

As to `Cc1cc(C)cc(S(=O)(=O)c2ccc(CNC(=O)c3cc4cnccc4[nH]3)cc2)c1` [N-({4-[(3,5-dimethylbenzene)sulfonyl]phenyl}methyl)-1H-pyrrolo[3,2-c]pyridine-2-carboxamide], the IC50 stood at 9 nM in experiment [1] (NAMPT enzymatic reaction) and 2 nM in experiment [2] (SRB assay).

As to `O=C(NCc1ccc(S(=O)(=O)c2cnc(N3CCCC3)s2)cc1)c1cnc2[nH]ncc2c1` [N-({4-[2-(pyrrolidin-1-yl)-1,3-thiazole-5-sulfonyl]phenyl}methyl)-1H-pyrazolo[3,4-b]pyridine-5-carboxamide], the results for the 50% inhibitory concentration (IC50) in experiment [1] (NAMPT enzymatic assay) and in experiment [2] (SRB) were 2.8 nM and 0.9 nM, respectively.

With `O=C(NCc1ccc(S(=O)(=O)c2ccc(C(F)(F)F)c(F)c2)cc1)c1ccc2nccn2c1`, the IC50 came out at 40.2 nM in experiment [1] (NAMPT enzymatic assay) and 4.4 nM in experiment [2] (SRB).

Take `COc1ccc(F)c(S(=O)(=O)c2ccc(CNC(=O)c3cc4cnccc4[nH]3)cc2)c1`: the IC50 in experiment [1] (NAMPT enzymatic reaction) was found to be 77.8 nM; in experiment [2] (SRB) it was 14.4 nM.
